Here are results for eight compounds from ChEMBL document CHEMBL4665856, “Design and synthesis of new disubstituted benzoxazolone derivatives that act as iNOS inhibitors with potent anti-inflammatory activity against LPS-induced acute lung injury (ALI)” (Bioorg Med Chem, 2020).

The subject of data set [1] is RAW264.7. Put plainly: Antiinflammatory activity in mouse RAW264.7 cells assessed as reduction in LPS-induced IL-6 production at 12.5 uM measured after 24 hrs by ELISA. It is filed as functional, cell-based.
Data set [2] has as its system RAW264.7. Put plainly: Antiinflammatory activity in mouse RAW264.7 cells assessed as reduction in LPS-induced IL-1 beta production at 12.5 uM measured after 24 hrs by ELISA. It is filed as functional, cell-based.
The test system of data set [3] is RAW264.7. Put plainly: Antiinflammatory activity in mouse RAW264.7 cells assessed as reduction in LPS-induced TNF-alpha production at 12.5 uM measured after 24 hrs by ELISA. It is filed as functional, cell-based.
In data set [4] the test system is RAW264.7. Nature of the data set: Cytotoxicity against mouse RAW 264.7 cells assessed as reduction in cell proliferation at 25 uM by MTT assay. Format: cell-based. The note with it: raw264.7, 25 µM.
Data set [5] concerns Mus musculus. Nature of the data set: Anti-inflammatory activity in Kunming mouse assessed as inhibition of xylene-induced ear edema at 12.5 mg/kg, po dosed 1 hr prior to xylene challenge and measured at 30 mins post xylene injection relative to control. It is filed as functional. The note with it: 1.5 h, time 90 min.
The target in data set [6] is T1, Nitric oxide synthase, inducible (Mus musculus, UniProt P29477).
T1 sequence (P29477 whole entry): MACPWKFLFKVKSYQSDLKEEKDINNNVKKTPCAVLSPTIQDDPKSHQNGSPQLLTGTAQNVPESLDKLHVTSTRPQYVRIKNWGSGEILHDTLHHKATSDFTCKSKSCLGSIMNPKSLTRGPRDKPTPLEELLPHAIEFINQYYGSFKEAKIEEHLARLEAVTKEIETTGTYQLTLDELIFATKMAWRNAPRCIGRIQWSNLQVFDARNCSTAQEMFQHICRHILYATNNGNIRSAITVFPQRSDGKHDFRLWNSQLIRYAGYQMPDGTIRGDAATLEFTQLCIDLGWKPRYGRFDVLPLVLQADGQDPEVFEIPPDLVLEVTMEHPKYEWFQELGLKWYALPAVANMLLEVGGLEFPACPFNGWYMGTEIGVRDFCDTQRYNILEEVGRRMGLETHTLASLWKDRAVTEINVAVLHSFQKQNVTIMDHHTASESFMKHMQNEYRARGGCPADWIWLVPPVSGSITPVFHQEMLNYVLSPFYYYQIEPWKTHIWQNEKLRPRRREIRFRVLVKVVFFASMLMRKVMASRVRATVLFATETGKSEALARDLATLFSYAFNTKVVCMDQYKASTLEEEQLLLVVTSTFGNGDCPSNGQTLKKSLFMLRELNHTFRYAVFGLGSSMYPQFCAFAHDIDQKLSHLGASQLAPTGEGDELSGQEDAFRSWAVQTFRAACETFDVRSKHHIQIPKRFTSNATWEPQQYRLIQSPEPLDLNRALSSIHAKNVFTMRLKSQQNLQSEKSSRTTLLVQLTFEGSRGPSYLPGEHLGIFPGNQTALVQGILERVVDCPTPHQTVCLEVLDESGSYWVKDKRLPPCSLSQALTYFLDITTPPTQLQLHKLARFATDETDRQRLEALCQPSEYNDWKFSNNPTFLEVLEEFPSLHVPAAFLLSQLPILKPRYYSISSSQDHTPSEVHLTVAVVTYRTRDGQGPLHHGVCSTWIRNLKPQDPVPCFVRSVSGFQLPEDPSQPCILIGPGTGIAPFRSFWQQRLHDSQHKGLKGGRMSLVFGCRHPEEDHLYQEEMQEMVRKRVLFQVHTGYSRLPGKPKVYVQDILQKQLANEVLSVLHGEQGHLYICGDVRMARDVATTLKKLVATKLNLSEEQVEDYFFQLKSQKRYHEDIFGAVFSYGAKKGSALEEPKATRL
Nature of the data set: Inhibition of iNOS in mouse RAW264.7 cells assessed as inhibition of LPS-induced nitric oxide overproduction incubated for 24 hrs by Griess assay. Format: cell-based.

Data set [7] has as its system RAW264.7. Put plainly: Anti-inflammatory activity in mouse RAW264.7 cells assessed as inhibition of LPS-induced nitric oxide synthase production measured after 24 hrs by ELISA. Format: functional, cell-based. The note with it: RAW264.7, 24 h.
Data set [8] is filed under the species Mus musculus. The note with it: Kunming, dose 12.5 mg/kg, time 90.0 min.
The subject of data set [9] is Mus musculus. Put plainly: Anti-inflammatory activity against LPS-induced ALI Kunming mouse model assessed as reduction in neutrophil infiltration in lungs by measuring decrease in MPO activity at 3.125 to 12.5 mg/kg, po administered 4 hrs prior to LPS instillation and measured at 12 hrs post-LPS instillation. Format: functional, organism-based. The note with it: dose mg/kg 3.125-12.5, time 16.0 hrs.

Data set [10] deals with Mus musculus. Put plainly: Anti-inflammatory activity against LPS-induced ALI Kunming mouse model assessed as reduction in IL-1 beta level in serum at 3.125 to 12.5 mg/kg, po administered 4 hrs prior to LPS instillation and measured at 12 hrs post-LPS instillation by ELISA. Format: functional, organism-based. The note with it: dose mg/kg 3.125-12.5, time 16.0 hrs.
Data set [11] relates to Mus musculus. Put plainly: Anti-inflammatory activity against LPS-induced ALI Kunming mouse model assessed as reduction in iNOS level in serum at 3.125 to 12.5 mg/kg, po administered 4 hrs prior to LPS instillation and measured at 12 hrs post-LPS instillation by ELISA. The note with it: dose mg/kg 3.125-12.5, time 16.0 hrs. Format: functional, organism-based.
For data set [12], the system named is Mus musculus. Nature of the data set: Anti-inflammatory activity against LPS-induced ALI Kunming mouse model assessed as reduction in TNF-alpha level in serum at 3.125 to 12.5 mg/kg, po administered 4 hrs prior to LPS instillation and measured at 12 hrs post-LPS instillation by ELISA. It is filed as functional, organism-based. The note with it: dose mg/kg 3.125-12.5, time 16.0 hrs.

The subject of data set [13] is Mus musculus. Nature of the data set: Anti-inflammatory activity against LPS-induced ALI Kunming mouse model assessed as reduction in inflammatory infiltration in lungs and pulmonary congestion at 3.125 to 12.5 mg/kg, po administered 4 hrs prior to LPS instillation and measured at 12 hrs post-LPS instillation by hematoxylin-eosin staining based analysis. The note with it: dose mg/kg 3.125-12.5, time 16.0 hrs. It is filed as functional, organism-based.

For data set [14], the system named is Mus musculus. Nature of the data set: Anti-inflammatory activity against LPS-induced ALI Kunming mouse model assessed as reduction in lung edema by measuring reduction in lung wet-to-dry ratio at 3.125 to 12.5 mg/kg, po administered 4 hrs prior to LPS instillation and measured at 12 hrs post-LPS instillation. It is filed as functional, organism-based. The note with it: dose mg/kg 3.125-12.5, time 16.0 hrs.

Data set [15] relates to RAW264.7. Put plainly: Anti-inflammatory activity in mouse RAW264.7 cells assessed as reduction in LPS-induced iNOS mRNA expression at 12.5 uM by RT-PCR analysis. Format: functional, cell-based.
Data set [16] concerns Mus musculus. Nature of the data set: Anti-inflammatory activity against LPS-induced ALI Kunming mouse model assessed as reduction in IL-6 level in serum at 3.125 to 12.5 mg/kg, po administered 4 hrs prior to LPS instillation and measured at 12 hrs post-LPS instillation by ELISA. It is filed as functional, organism-based. The note with it: dose mg/kg 3.125-12.5, time 16.0 hrs.

Data set [17] relates to Mus musculus. Nature of the data set: Anti-inflammatory activity against LPS-induced ALI Kunming mouse model assessed as reduction in iNOS expression in lung at 3.125 to 12.5 mg/kg, po administered 4 hrs prior to LPS instillation and measured at 12 hrs post-LPS instillation by immunohistochemistry. The note with it: dose mg/kg 3.125-12.5, time 16.0 hrs. Format: functional, organism-based.

Activity calls are given as the source filed them. The calls are words filed in the database; no cut-off is given here.

As to `Cn1cnc(S(=O)(=O)Oc2cccc3oc(=O)n(Cc4ccccc4)c23)c1`, the outcome in data set [1], in data set [2] and in [3] was Active. In addition, the Activity entry in [4] is given as “Non-Toxic”. In addition, the inhibition in vivo at 12.5 mg/kg in data set [5] was greater than 50%.
In the case of `Cn1cnc(S(=O)(=O)Oc2cccc3oc(=O)n(CCc4ccccc4)c23)c1`, the result in data set [1], in data set [2] and in data set [3] was Active. The Activity result in data set [4] was “Non-Toxic”. The values for the IC50 in [6] and in data set [7] were 13.4 µM and 9.73 µM, respectively. Further, the inhibition in vivo at 12.5 mg/kg in data set [5] is greater than 50%.
For the compound `Cc1ccccc1S(=O)(=O)Oc1cccc2oc(=O)n(CCc3ccccc3)c12`, the Activity entry in [4] is on record as “Non-Toxic”.
`CN(C)c1cccc2c(S(=O)(=O)Oc3cccc4oc(=O)n(Cc5ccccc5)c34)cccc12`: the result in data set [1], in data set [2] and in data set [3] was Active. Also, the Activity entry in [4] was “Non-Toxic”. The IC50 was 16.4 µM in data set [6] and 4.61 µM in [7]. For the same compound, in [5], the inhibition in vivo at 12.5 mg/kg was greater than 50%.
For `N=C(NCCC[C@H](N)C(=O)O)N[N+](=O)[O-]` [NITROARGININE], the IC50 in [6] is 27.6 µM; in data set [7] it was 2.92 µM. In [8], the inhibition result is “Active”.
For `CN(C)c1cccc2c(S(=O)(=O)Oc3cccc4oc(=O)n(CCc5ccccc5)c34)cccc12`, the Activity result in data set [9] is “Dose-dependent effect”; in data set [10], “Dose-dependent effect”; in data set [4] it was “Non-Toxic”; in data set [11], “Dose-dependent effect”; in data set [12], “Dose-dependent effect”; in data set [13] it was “Dose-dependent effect”. The Activity result in data set [14], in data set [16] and in data set [17] was “Dose-dependent effect” in each case. Moreover, the result in data set [1], in data set [2], in data set [3] and in [15] was Active. Also, the values for the IC50 in data set [6] and in data set [7] were 14.7 µM and 3.34 µM, respectively. Also, the inhibition in vivo at 12.5 mg/kg in data set [5] is greater than 50%.
Regarding `Cn1cnc(S(=O)(=O)Oc2cccc3oc(=O)n(Cc4ccc([N+](=O)[O-])cc4)c23)c1`, in data set [4], the Activity entry is given as “Non-Toxic”.
On the same count and under the same terms, the same measure for `Cc1ccc(Cn2c(=O)oc3cccc(OS(=O)(=O)c4cn(C)cn4)c32)cc1`: “Non-Toxic”.
